Laboratory results taken from patent US7429238B2, “Systems and methods for the generation of crystalline polymorphs” (priority 2001, dated 2008).

Experiments:
[1] = following a single oral dose, average; cited from earlier work
[2] = rat, in vivo; cited from earlier work
[3] = Differential scanning calorimetry of the new carbamazepine polymorph; type: physicochemical; settings: scan rate of 10° C./minute
[4] = Infrared of single crystals versus KBr pellets (phase transformation under pressure); type: physicochemical; settings: KBr pellets produced at 10,000 psi vs infrared microscopy of single crystals
From the text: The corresponding peaks in the new polymorph are found at 3474, 3149, 1674, 1394, 773, and 765 cm^−1. […] Significant differences in the IR spectra of two different polymorphs provide a fast, reliable method of polymorph characterization despite the fact that a hydrogen-bonded dimer is observed in the crystal structure of both polymorphs. […] Therefore, it is contemplated that this new form has good shelf life (kinetic trapping of the unstable form).

[5] = cited from earlier work
[6] = room temperature; cited from earlier work

NC(=O)N1c2ccccc2C=Cc2ccccc21 [carbamazepine]
elimination half-life of unchanged carbamazepine in the plasma [1]: approximately 36 hours | long-term toxicity finding [2]: potential carcinogenic risk

NC(=O)N1c2ccccc2C=Cc2ccccc21 [new polymorph, carbamazepine]
phase transitions by differential scanning calorimetry [3]: absence of phase transitions below 184 °C | phase transformation under pressure [4]: not taking place

CC(=O)Nc1ccc(O)cc1 [orthorhombic polymorph, 4-acetamidophenol]
solubility relative to the monoclinic form [5]: more soluble

NC(=O)N1c2ccccc2C=Cc2ccccc21 [trigonal form, carbamazepine]
solid form stability in solvent [6]: undergoes solvent-mediated conversion to the monoclinic crystal
